This note sets out measurements from EP1021178B1, “SELENOPHENE ANTI-TUMOR AGENTS” (Purdue Research Foundation, priority 1996, dated 1997).

Common to all, as to experiment: NCI human tumor cell panel
One assay has as its system TK-10. Particulars: for CC50: TK-10, read-out: Log10 LC50 (converted).
Another assay deals with SNB-75. The note with it: for CC50: SNB-75, read-out: Log10 LC50 (converted).
For a further assay, the system named is SF-295. The note with it: SF-295, read-out: Log10 LC50 (converted).
The subject of another assay is OVCAR-8. Particulars: OVCAR-8, read-out: Log10 LC50 (converted).
In another assay the test system is MALME-3M. Particulars: read-out: Log10 LC50 (converted).
For the next assay, the system named is NCI-H23. Particulars: NCI-H23, read-out: Log10 LC50 (converted).
A further assay concerns UO-31. The note with it: UO-31, read-out: Log10 LC50 (converted).
In a further assay the test system is MDA-MB-435. Particulars: for CC50: MDA-MB-435, read-out: Log10 LC50 (converted).
For the next assay, the system named is HOP-62. The format is cell-based. Particulars: HOP-62, read-out: Log10 LC50 (converted). The text has this:
(§1) Considering the diversity of tumors in terms of cell type, morphology, growth rate and other cellular characteristics, the U.S. National Cancer Institute (NCI) has developed a "disease-oriented" approach to antitumor activity screening (M.R. Boyd, in "Principle of Practice of Oncology" J.T. Devita, S. Hellman, S.A. Rosenberg (Eds.) Vol. 3, PPO Update, No. 10, 1989). This in vitro prescreening system is based on the measurement of antitumor cytotoxicity against human tumor cell line panels consisting of approximately 60 cell lines of major human tumors (including leukemia and slower growing tumor cells such as lung, colon, breast, skin, kidney, etc.). The most important advantage of the new in vitro screening panels is the opportunity to identify compounds that are selectively more cytotoxic to cells of slowly growing solid tumors than to rapidly growing leukemia cells.
(§2) The cytotoxic activity of the present selenophene compounds have been measured utilizing two different assays or screens. The first screen measures the cytotoxicity against a panel of sixty different human tumor cell lines. This assay provides data regarding the general cytotoxicity of an individual compound. In particular this type of assay is useful in identifying compounds which have enhanced cytotoxic activity against slow growing tumors as compared to faster growing tumor cells such as leukemia tumor cell lines. The identification of such compounds is critical since previously identified antitumor agents have low cytotoxic activity against slower growing tumors. […] The specificity of a cytotoxic compound for tumor cell lines relative to normal cells is an important characteristic of an effective antitumor agent.
(§3) Antitumor cytotoxicity data generated from the National Cancer Institute human tumor cell panels can also be expressed in a graphic pattern (mean graph) to display differential cell growth inhibition (K.D. Paull, R.H. Shoemaker, L. Hodes, A. Monks, D.A. Scudiero, L. Rubinstein, J. Plowman and M.R. Boyd, J. Nail. Cancer Inst., 81, 1088, 1989.) In the mean graph, the arithmetic mean of the logarithm of the GI50 (50% growth inhibition), TGI (total growth inhibition) or LC50 (50% lethal concentration) values is used as an anchor point. […] The length of a bar is indicative of differential cytotoxicity against a specific type of tumor cells or tumor panels.
(§4) The antitumor cytotoxicity of the selenophene compounds tested in those in vitro assays was measured by a microculture assay using either a 3-(4,5-dimethylthiazol-2-yl)-2,5-diphenyltetrazolium bromide (MTT) or sulforhodamine B (SRB) based assay. [M.R. Boyd in "Principles and Practices of Oncology," V.T. DeVita, Jr.]. The experiments were conducted at Purdue University in 96-well microtiter plates and the cytotoxic effects of the selenophene compounds on those cells were measured by cell count using a Coulter Z.F. counter (Hialeah, FL). The results are expressed as GI50, the concentration of drug at which cell numbers are reduced to 50% of control cell culture [T.C.K. Chan, C.J. Chang, N.M. Koonchanok and R.L. Geahlen, Biochem. Biophys. Res. Commun., 193, 1152, (1993); S. Hellman and S.A. Rosenberg (Eds.), Vol. 3, PPO Updates, Number 10, (1989).]
(§5) This in vitro microculture assay has an advantage over in vivo assays in that results are obtained within a week as opposed to several months. The MTT assay is based on the production of a dark blue formazan product by dehydrogenase in the mitochondria of live tumor cells after exposure to drug for 6 days [M.C. Alley, D.A. Scudiero, A. Monks, M.L. Hursey, M.J. Czerwinski, D.L. Fine, B.J. Abbott, J.G. Mayo, R.H. Shoemaker and M.R. Boyd, Cancer Res., 48, 589, 1988]. Thus, only live cells are stained and can be measured at 570 nm. […]

In another assay the test system is SK-MEL-28. The format is cell-based. Particulars: SK-MEL-28, read-out: Log10 LC50 (converted).
From the text: as §1, §2, §3, §4, §5

A further assay relates to KM12. The format is cell-based. Particulars: KM12, read-out: Log10 LC50 (converted).
From the text: as §1, §2, §3, §4, §5

The test system of the next assay is SK-MEL-2. It counts as cell-based. The note with it: SK-MEL-2, read-out: Log10 LC50 (converted).
From the text: as §1, §2, §3, §4, §5

For a further assay, the system named is UACC-62. The format is cell-based. The note with it: UACC-62, read-out: Log10 LC50 (converted).
From the text: as §1, §2, §3, §4, §5

The subject of another assay is A498. It counts as cell-based. The note with it: A498, read-out: Log10 LC50 (converted).
From the text: as §1, §2, §3, §4, §5

A further assay has as its system U251. It counts as cell-based. Particulars: U-251, read-out: Log10 LC50 (converted).
From the text: as §1, §2, §3, §4, §5

For another assay, the system named is HCC-2998. The format is cell-based. Particulars: HCC 2998, read-out: Log10 LC50 (converted).
From the text: as §1, §2, §3, §4, §5

Another assay relates to SNB-19. Particulars: SNB-19, read-out: Log10 LC50 (converted).
The next assay has as its system OVCAR-3. Particulars: OVCAR-3, read-out: Log10 LC50 (converted).
The test system of a further assay is EKVX. Particulars: read-out: Log10 LC50 (converted).

With `OCc1ccc(-c2ccc(-c3ccc(CO)[se]3)[se]2)[se]1`, the CC50 is 15.8 µM in the assay on TK-10; above 100 µM with SNB-75; 70.8 µM in the assay with SF-295; 72.4 µM with OVCAR-8; 56.2 µM with MALME-3M; 95.5 µM in the assay on NCI-H23. Further, the CC50 in the assay on UO-31 was 38.9 µM; in the assay on MDA-MB-435, 49 µM; in the assay on HOP-62 it was 57.5 µM; with SK-MEL-28, above 100 µM; with KM12 it was 50.1 µM; in the assay on SK-MEL-2, 69.2 µM. Besides, the CC50 in the assay on UACC-62 is 44.7 µM; with A498, 7.24 µM; in the assay on U251 it was 50.1 µM; in the assay on HCC-2998, 12.6 µM; in the assay with SNB-19, 91.2 µM; in the assay on OVCAR-3, 5.37 µM. Besides, in the assay with EKVX, the CC50 is above 100 µM. In addition, in the assay with TK-10 (TK-10, read-out: Log10 TGI), the IC (TGI) was 0.661 µM.
For `OCc1ccc(-c2ccc(-c3ccc(CO)[se]3)s2)[se]1`, the CC50 in the assay with TK-10, in the assay with SNB-75, with SF-295, in the assay on OVCAR-8, in the assay with MALME-3M and in the assay on NCI-H23 was above 100 µM in each case. For the same molecule, the CC50 with UO-31, in the assay with MDA-MB-435, in the assay on HOP-62, in the assay with SK-MEL-28, in the assay on KM12 and with SK-MEL-2 was above 100 µM in each case. Moreover, the CC50 was above 100 µM in the assay on UACC-62; 0.0955 µM in the assay with A498; 46.8 µM in the assay with U251; 2.45 µM with HCC-2998; above 100 µM with SNB-19; above 100 µM in the assay on OVCAR-3. In addition, in the assay on EKVX, the CC50 was above 100 µM. The IC (TGI) in the assay with MDA-MB-435 (MDA-MB-435, read-out: Log10 TGI) was above 100 µM.
For the molecule `OCc1ccc(-c2ccc(-c3cccs3)[se]2)s1`, the CC50 with TK-10, in the assay with SNB-75, in the assay with SF-295, with OVCAR-8, with MALME-3M and in the assay with NCI-H23 was above 100 µM in each case. Also, the CC50 in the assay on UO-31, in the assay on MDA-MB-435, in the assay with HOP-62, with SK-MEL-28, with KM12 and in the assay on SK-MEL-2 was above 100 µM in each case. Also, the CC50 is above 100 µM in the assay on UACC-62; 0.0661 µM in the assay on A498; above 100 µM in the assay with U251; 9.77 µM in the assay on HCC-2998; above 100 µM in the assay on SNB-19; above 100 µM in the assay on OVCAR-3. For the same molecule, in the assay with EKVX, the CC50 is above 100 µM.
With `O=Cc1ccc(-c2ccc(-c3ccc(C=O)[se]3)[se]2)[se]1`, the CC50 with TK-10, in the assay with SNB-75, in the assay with SF-295, in the assay with OVCAR-8, with MALME-3M and with NCI-H23 was above 100 µM each time. For the same molecule, the CC50 with UO-31, in the assay with MDA-MB-435, with HOP-62, in the assay with SK-MEL-28, with KM12 and in the assay with SK-MEL-2 was above 100 µM in each case. The CC50 in the assay on UACC-62 is above 100 µM; in the assay on A498, 6.76 µM; in the assay with U251 it was above 100 µM; with HCC-2998, above 100 µM; in the assay on SNB-19, above 100 µM; in the assay on OVCAR-3, above 100 µM. The CC50 in the assay on EKVX is above 100 µM.
Regarding `O=Cc1ccc(-c2ccc(-c3ccc[se]3)[se]2)[se]1`, the CC50 is 25.1 µM in the assay on TK-10; above 100 µM in the assay on SNB-75; 53.7 µM in the assay with SF-295; 95.5 µM in the assay with OVCAR-8; 64.6 µM in the assay on MALME-3M; 69.2 µM in the assay on NCI-H23. Further, the CC50 in the assay with UO-31 was 53.7 µM; with MDA-MB-435, above 100 µM; in the assay with HOP-62, 74.1 µM; in the assay on SK-MEL-28 it was 55 µM; in the assay on KM12, 45.7 µM; in the assay on SK-MEL-2, above 100 µM. Moreover, the CC50 is 66.1 µM with UACC-62; 6.31 µM in the assay on A498; 47.9 µM in the assay on U251; 38.9 µM in the assay on HCC-2998; 87.1 µM in the assay with SNB-19; 30.9 µM with OVCAR-3. For the same molecule, the CC50 in the assay on EKVX is above 100 µM.
Consider `O=Cc1ccc(-c2ccc(-c3cccs3)[se]2)s1`, for which the CC50 in the assay with TK-10 is 53.7 µM; in the assay on SNB-75, above 100 µM; in the assay on SF-295, above 100 µM; with OVCAR-8 it was above 100 µM; with MALME-3M it was above 100 µM; in the assay with NCI-H23, above 100 µM. Also, the CC50 in the assay on UO-31, with MDA-MB-435, in the assay with HOP-62, in the assay on SK-MEL-28, in the assay with KM12 and in the assay on SK-MEL-2 was above 100 µM throughout. Further, the CC50 is 85.1 µM with UACC-62; 0.933 µM in the assay with A498; above 100 µM in the assay with U251; 20.9 µM with HCC-2998; above 100 µM in the assay with SNB-19; above 100 µM in the assay on OVCAR-3. Further, the CC50 with EKVX was above 100 µM. Moreover, the IC (TGI) in the assay on SNB-75 (SNB-75, read-out: Log10 TGI) was 57.5 µM.
